Assay results published in ChEMBL document CHEMBL4665541, “Search for new therapeutic options for the uncommon pathogen Mycobacterium chimaera: an open drug discovery approach” (Lancet Microbe, 2021).

Legend:
Assay type in all cases: functional, organism-based
Parameters in all cases: conc 20 uM
[1] = tested on: Mycobacterium intracellulare subsp. chimaera; experiment: (§1) Inhibition of mycobacterial growth using the resazurin microtitre cell viability assay (REMA), compounds at final concentration of 20 µM (2% v/v DMSO). Hits were classed as compounds that inhibited bacterial growth by 70% or more compared to drug-free controls.; conditions: NCTC13781
[2] = tested on: Mycobacterium tuberculosis; experiment: as §1; conditions: H37Rv
[3] = tested on: Mycobacteroides abscessus; experiment: as §1; conditions: ATCC19977

| Substance | Survival [1] | Survival [2] | Survival [3] |
| --- | --- | --- | --- |
| MMV688990 | 102% | 98.5% | 103% |
| MMV688991 | 90.1% | 82.1% | 98.3% |
| MMV688994 | 80% | 13.7% | 101% |
| MMV689000 | 101% | 89.8% | 115% |
| MMV689028 | 127% | 121% | 121% |
| MMV689029 | 93.5% | 86.9% | 119% |
| MMV689060 | 109% | 104% | 119% |
| MMV689061 | 127% | 122% | 118% |
| MMV689243 | 110% | 82.6% | 113% |
| MMV689244 | 107% | 90.1% | 115% |
| MMV689255 | 109% | 89.2% | 124% |
| MMV689437 | 106% | 104% | 99% |
| MMV689480 | 95.5% | 98.5% | 112% |
| MMV689709 | 91.7% | 97.3% | 114% |
| MMV689758 | 1.81% | 5.64% | 19.8% |
| MMV690027 | 104% | 101% | 111% |
| MMV690028 | 92.3% | 95.8% | 120% |
| MMV690102 | 111% | 106% | 113% |
| MMV690103 | 110% | 105% | 117% |
| MMV1019989 | 107% | 105% | 99% |
| MMV1028806 | 100% | 26.7% | 116% |
| MMV1029203 | 125% | 128% | 116% |
| MMV1030799 | 99.7% | 18.8% | 121% |
| MMV1037162 | 107% | 107% | 97.5% |
| MMV1088520 | 98.2% | 102% | 110% |
| MMV1110498 | 102% | 97.9% | 111% |
| MMV1198433 | 112% | 105% | 98.6% |
| MMV1236379 | 98.4% | 96% | 110% |
